Source: ChEMBL document CHEMBL1130059, “Neurotrophic 3,9-bis[(alkylthio)methyl]-and-bis(alkoxymethyl)-K-252a derivatives” (J Med Chem, 1997)

How the values were obtained:
[1] = target: T1, Choline O-acetyltransferase (Rattus norvegicus) (UniProt P32738); test: Neurotrophic activity as measured by the ability to enhance basal forebrain choline acetyl transferase at 250 nM; assay type: functional
T1 sequence (whole entry): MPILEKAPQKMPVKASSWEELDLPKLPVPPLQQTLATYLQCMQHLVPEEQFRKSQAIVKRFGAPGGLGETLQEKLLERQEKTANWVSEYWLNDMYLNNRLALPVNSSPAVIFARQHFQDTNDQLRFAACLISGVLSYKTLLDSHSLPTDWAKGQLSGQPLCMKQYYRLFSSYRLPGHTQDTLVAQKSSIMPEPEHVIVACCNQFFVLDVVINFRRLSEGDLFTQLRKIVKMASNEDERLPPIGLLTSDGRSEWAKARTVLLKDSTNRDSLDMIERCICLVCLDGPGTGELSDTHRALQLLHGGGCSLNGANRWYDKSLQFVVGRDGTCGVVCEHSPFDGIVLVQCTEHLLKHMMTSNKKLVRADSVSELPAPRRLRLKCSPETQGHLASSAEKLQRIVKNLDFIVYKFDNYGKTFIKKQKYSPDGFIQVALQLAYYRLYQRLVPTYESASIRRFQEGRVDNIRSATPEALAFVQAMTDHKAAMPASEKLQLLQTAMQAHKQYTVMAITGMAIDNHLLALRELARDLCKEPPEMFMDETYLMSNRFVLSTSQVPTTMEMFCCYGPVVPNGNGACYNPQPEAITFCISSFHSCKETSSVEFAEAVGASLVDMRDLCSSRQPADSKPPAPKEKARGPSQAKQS

[2] = target: T1, Choline O-acetyltransferase (Rattus norvegicus); test: Neurotrophic activity as measured by the ability to enhance basal forebrain choline acetyl transferase at 50 nM; assay type: functional
[3] = target: T1, Choline O-acetyltransferase (Rattus norvegicus); test: Neurotrophic activity as measured by the ability to enhance embryonic rat spinal cord choline acetyl transferase at 300 nM; assay type: functional
[4] = target: T1, Choline O-acetyltransferase (Rattus norvegicus); test: Neurotrophic activity as measured by the ability to enhance embryonic rat spinal cord choline acetyl transferase at 30 nM; assay type: functional
[5] = target: High affinity nerve growth factor receptor (Homo sapiens, UniProt P04629); test: Ability to inhibit human trk A tyrosine kinase expressed in baculovirus using ELISA based enzyme assay was determined
[6] = target: cAMP-dependent protein kinase alpha-catalytic subunit (Oryctolagus cuniculus, UniProt Q95J97); test: Inhibition of cAMP dependent Protein kinase A of rabbit Skeletal Muscle.
[7] = target: Myosin light chain kinase, smooth muscle (Gallus gallus, UniProt P11799); test: Inhibition of Smooth muscle myosin light chain kinase of chicken gizzard
[8] = target: Protein kinase C (PKC); test: Inhibition of Protein kinase C of Rat brain

Sequence of High affinity nerve growth factor receptor (P04629 whole entry): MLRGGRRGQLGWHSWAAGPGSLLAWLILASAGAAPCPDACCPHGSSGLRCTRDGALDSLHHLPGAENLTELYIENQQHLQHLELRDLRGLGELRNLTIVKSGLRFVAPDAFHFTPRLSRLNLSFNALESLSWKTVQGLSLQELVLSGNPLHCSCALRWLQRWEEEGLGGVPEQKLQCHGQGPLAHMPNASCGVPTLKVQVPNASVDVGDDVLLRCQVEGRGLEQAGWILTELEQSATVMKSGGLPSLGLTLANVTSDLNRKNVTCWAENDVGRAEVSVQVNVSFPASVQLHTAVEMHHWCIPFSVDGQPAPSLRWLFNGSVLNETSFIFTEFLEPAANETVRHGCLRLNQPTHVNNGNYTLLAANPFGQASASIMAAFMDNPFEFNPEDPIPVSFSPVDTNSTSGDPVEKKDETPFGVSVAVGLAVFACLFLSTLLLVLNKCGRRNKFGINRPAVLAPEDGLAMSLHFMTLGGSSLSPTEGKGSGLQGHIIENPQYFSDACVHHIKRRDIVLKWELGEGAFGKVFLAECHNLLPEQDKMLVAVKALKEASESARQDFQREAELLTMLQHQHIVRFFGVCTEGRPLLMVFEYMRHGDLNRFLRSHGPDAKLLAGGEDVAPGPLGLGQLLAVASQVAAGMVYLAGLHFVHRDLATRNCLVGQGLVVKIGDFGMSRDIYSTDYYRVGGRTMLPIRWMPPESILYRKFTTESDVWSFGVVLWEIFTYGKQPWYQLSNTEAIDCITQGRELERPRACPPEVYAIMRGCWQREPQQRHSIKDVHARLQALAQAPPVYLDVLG
Sequence of Myosin light chain kinase, smooth muscle (P11799 whole entry): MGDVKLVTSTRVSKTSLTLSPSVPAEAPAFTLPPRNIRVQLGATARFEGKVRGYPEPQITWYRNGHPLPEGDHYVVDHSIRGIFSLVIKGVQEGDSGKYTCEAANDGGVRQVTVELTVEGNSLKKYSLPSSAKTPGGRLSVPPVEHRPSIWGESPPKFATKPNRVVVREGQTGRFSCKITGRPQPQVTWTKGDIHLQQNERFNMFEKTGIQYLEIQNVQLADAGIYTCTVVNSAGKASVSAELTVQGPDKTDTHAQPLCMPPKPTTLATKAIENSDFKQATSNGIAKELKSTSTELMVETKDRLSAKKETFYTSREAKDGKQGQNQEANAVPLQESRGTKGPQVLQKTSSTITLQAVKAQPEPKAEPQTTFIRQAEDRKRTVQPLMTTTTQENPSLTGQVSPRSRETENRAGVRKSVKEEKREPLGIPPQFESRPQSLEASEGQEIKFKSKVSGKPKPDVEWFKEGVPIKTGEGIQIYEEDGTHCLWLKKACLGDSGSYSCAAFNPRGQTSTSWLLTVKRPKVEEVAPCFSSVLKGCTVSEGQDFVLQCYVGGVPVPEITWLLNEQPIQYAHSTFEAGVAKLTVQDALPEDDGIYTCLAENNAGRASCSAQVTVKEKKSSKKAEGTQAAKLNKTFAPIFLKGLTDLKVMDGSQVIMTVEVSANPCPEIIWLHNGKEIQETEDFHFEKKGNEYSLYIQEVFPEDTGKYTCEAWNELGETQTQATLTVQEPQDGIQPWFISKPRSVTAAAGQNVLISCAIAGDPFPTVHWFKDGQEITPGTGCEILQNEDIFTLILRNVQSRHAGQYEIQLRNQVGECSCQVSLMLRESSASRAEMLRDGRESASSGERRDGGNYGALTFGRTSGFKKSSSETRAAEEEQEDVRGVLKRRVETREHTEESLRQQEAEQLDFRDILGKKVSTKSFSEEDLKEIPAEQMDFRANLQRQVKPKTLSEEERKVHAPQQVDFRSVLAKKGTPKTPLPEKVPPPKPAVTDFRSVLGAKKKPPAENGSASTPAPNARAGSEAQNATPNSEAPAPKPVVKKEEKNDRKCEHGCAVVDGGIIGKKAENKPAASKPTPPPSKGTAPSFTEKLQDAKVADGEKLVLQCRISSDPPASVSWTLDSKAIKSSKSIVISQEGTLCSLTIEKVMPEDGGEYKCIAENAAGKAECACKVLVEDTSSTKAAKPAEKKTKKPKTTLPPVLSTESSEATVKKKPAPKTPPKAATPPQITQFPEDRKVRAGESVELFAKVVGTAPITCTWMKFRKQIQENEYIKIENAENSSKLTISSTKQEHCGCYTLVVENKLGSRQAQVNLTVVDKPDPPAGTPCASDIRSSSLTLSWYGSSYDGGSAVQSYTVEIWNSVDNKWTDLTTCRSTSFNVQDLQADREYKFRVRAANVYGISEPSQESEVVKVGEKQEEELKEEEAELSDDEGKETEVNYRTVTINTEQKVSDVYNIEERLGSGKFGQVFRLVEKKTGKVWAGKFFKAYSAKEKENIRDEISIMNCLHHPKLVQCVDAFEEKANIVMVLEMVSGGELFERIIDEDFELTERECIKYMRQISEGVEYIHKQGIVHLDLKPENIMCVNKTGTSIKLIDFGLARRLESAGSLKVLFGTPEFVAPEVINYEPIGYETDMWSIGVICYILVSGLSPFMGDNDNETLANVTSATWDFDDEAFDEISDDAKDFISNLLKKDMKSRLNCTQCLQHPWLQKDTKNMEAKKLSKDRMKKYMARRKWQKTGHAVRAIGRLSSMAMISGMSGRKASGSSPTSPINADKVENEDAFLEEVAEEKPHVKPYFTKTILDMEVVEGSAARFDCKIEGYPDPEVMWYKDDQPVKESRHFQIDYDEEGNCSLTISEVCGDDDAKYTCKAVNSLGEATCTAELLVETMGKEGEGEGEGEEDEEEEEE

With `CCCCSCc1ccc2c(c1)c1c3c(c4c5cc(CSCCCC)ccc5n5c4c1n2C1C[C@](O)(C(=O)OC)[C@]5(C)O1)CNC3=O` the Control [1] was 200%, the Control [2] was 143% and the Control [3] was 289%. For the same compound, the Control [4] was < 120% and the IC50 [5] was > 1000 nM.
In the case of `C=CCSCc1ccc2c(c1)c1c3c(c4c5cc(CSCC=C)ccc5n5c4c1n2C1C[C@](O)(C(=O)OC)[C@]5(C)O1)CNC3=O`, the Control [1] is reported as 191%, the Control [2] is reported as < 120% and the Control [3] is reported as 302%. The Control [4] was < 120% and the IC50 [5] was > 1000 nM.
For `COCc1ccc2c(c1)c1c3c(c4c5cc(COC)ccc5n5c4c1n2C1C[C@](O)(C(=O)OC)[C@]5(C)O1)CNC3=O`, the Control [1] was 340%, the Control [2] was 168% and the Control [3] was 218%. For the same compound, the Control [4] was 193% and the IC50 [5] was 270 nM.
`COC(=O)[C@@]1(O)C[C@H]2O[C@]1(C)n1c3ccccc3c3c4c(c5c6ccccc6n2c5c31)C(=O)NC4` [K-252A] gave a Control [1] of 325%, a Control [2] of 148% and a Control [3] of 186%. The Control [4] was < 120%, the IC50 [6] was 16 nM and the IC50 [7] was 20 nM.
With `CCCSCc1ccc2c(c1)c1c3c(c4c5cc(CSCCC)ccc5n5c4c1n2C1C[C@](O)(C(=O)OC)[C@]5(C)O1)CNC3=O` the Control [1] was 180%, the Control [2] was < 120% and the Control [3] was 315%. The Control [4] was < 120% and the IC50 [5] was > 1000 nM.
In the case of `CCOCc1ccc2c(c1)c1c3c(c4c5cc(COCC)ccc5n5c4c1n2C1C[C@](O)(C(=O)OC)[C@]5(C)O1)CNC3=O`, the Control [1] is reported as 237%, the Control [2] is reported as < 120% and the Control [3] is reported as 188%. It also gave a Control [4] of 153% and an IC50 [5] of 210 nM.
In the case of `COC(=O)[C@@]1(O)CC2O[C@]1(C)n1c3ccc(CSCCN(C)C)cc3c3c4c(c5c6cc(CSCCN(C)C)ccc6n2c5c31)C(=O)NC4`, the Control [1] is reported as 158%, the Control [2] is reported as < 120% and the Control [3] is reported as 208%. The Control [4] was < 120%.
With `COC(=O)[C@@]1(O)CC2O[C@]1(C)n1c3ccc(CO)cc3c3c4c(c5c6cc(CO)ccc6n2c5c31)C(=O)NC4` the Control [3] was < 120% and the Control [4] was < 120%.
With `COC(=O)[C@@]1(O)CC2O[C@]1(C)n1c3ccc(CSC(C)C)cc3c3c4c(c5c6cc(CSC(C)C)ccc6n2c5c31)C(=O)NC4` the Control [2] was 224%, the Control [3] was 289% and the Control [4] was < 120%. For the same compound, the IC50 [5] was > 1000 nM.
`CCSCc1ccc2c(c1)c1c3c(c4c5cc(CSCC)ccc5n5c4c1n2C1C[C@](O)(C(=O)OC)[C@]5(C)O1)CNC3=O` was tested, and the Control [1] was 363%, the Control [2] was 143% and the Control [3] was 280%. For the same compound, the Control [4] was 140%, the IC50 [8] was 16300 nM and the IC50 [6] was > 10000 nM. For the same compound, the IC50 [7] was > 10000 nM and the IC50 [5] was > 1000 nM.
